Data published in US20250108038A1 (priority 2023, published 2025).
“And” between values parts separate entries of the source, which are not always exact repeats. Equal entries are not always repeated.

Legend:
in vivo = settings: for Cmax of Compound I-19 / MRT0-inf of Compound I-19 / MRT0-last of Compound I-19 / T1/2 of Compound I-19 / Tlast of Compound I-19 / Tmax of Compound I-19 / AUC0-inf of Compound I-19 / AUC0-last of Compound I-19: male CD-1 mice; for plasma concentration of Compound I-19: single PO 6.654 mg/kg (as titled)
Protocol: Dose solutions were prepared freshly on each day of studies prior to dosing.
The animals were weighed immediately prior to dosing and the dose volume was calculated individually based the obtained body weight and the nominal dose volume. […] The nominal dose volume was 10 mL/kg in both studies.
Cage side observation was performed before and after dosing as well as at each scheduled sample collection time. The observation included appearance, posture, behavior, morbidity and mortality. Abnormal findings, if any, are required to be recorded in the study record and communicated with study director, veterinarian, and Supernus if necessary.
Approximately 40 μL blood was collected at each scheduled time point from saphenous veins. The actual sample collection time was within 1 min. of the nominal time for collections prior to or at 1 hour, and within 5% of the nominal values for collections post 1 hour.
The blood samples were placed in pre-labeled micro-centrifuge tubes containing K2EDTA as anticoagulant and kept on ice before they were processed to plasma within 30 minutes of collection by centrifugation at 4° C., 3000 g for 5 minutes. The plasma samples were stored at −70±10° C. until LC-MS/MS analysis.
Plasma concentrations below the LLOQ prior to Tmax were set to zero, and those after Tmax were excluded from PK calculation. The nominal dose and the nominal sample collection time were used for the calculation. The values of plasma concentrations and PK parameters are reported to three significant figures. The average values of each treatment group are presented as mean±SD.

[1] = Metabolic stability in human intestinal homogenate; format: in vitro ADME
Protocol: The intestinal homogenate mixture solution was added to 96-well plates ([…]) in duplicate. […] Reaction was initiated by adding cofactor solution at 10 μL/well.
The intrinsic clearances were calculated using the following equations: […]

[2] = single IP Compound I-19 4.061 mg/kg, individual animals
[3] = single IP Compound I-19 4.061 mg/kg, mean
[4] = single PO Compound I-19 6.645 mg/kg, individual animals
[5] = single PO Compound I-19 6.645 mg/kg, mean
[6] = 1 μM, 0.5 mg/mL homogenate, 1 mM NADPH
[7] = 1 μM, NCF60 (60 min, no cofactors)

In the case of `Clc1ccc(C2(OCC3OCCO3)c3ccccc3C3=NCCN32)cc1` (stereo not drawn) [Compound I-19], the “Cmax of Compound I-19” value (in vivo; [2]) is reported as 489 ng/mL and 311 ng/mL and 318 ng/mL, the “MRT0-inf of Compound I-19” value (in vivo; [2]) is reported as 49.6 min and 97.2 min and 62.4 min and the “MRT0-last of Compound I-19” value (in vivo; [2]) is reported as 48.9 min and 96 min and 61.2 min. The “T1/2 of Compound I-19” value (in vivo; [2]) was 27.1 min and 56.5 min and 29.9 min, the “Tlast of Compound I-19” value (in vivo; [2]) was 4.00 h (2×) and 8.00 h and the “Tmax of Compound I-19” value (in vivo; [2]) was 30 min. The “AUC0-inf of Compound I-19” value (in vivo; [3]) was 483 ng·h/mL, the “AUC0-last of Compound I-19” value (in vivo; [3]) was 482 ng·h/mL and the “Cmax of Compound I-19” value (in vivo; [3]) was 373 ng/mL. The “MRT0-inf of Compound I-19” value (in vivo; [3]) was 69.6 min, the “MRT0-last of Compound I-19” value (in vivo; [3]) was 69 min and the “T1/2 of Compound I-19” value (in vivo; [3]) was 37.9 min. For the same compound, the “Tlast of Compound I-19” value (in vivo; [3]) was 5.33 h, the “Tmax of Compound I-19” value (in vivo; [3]) was 25 min and the “plasma concentration of Compound I-19” value (in vivo; 0.500 h, mean) was 4.55 ng/mL. For the same compound, the “plasma concentration of Compound I-19” value (in vivo; 2.00 h, individual mice) was “BQL”, the “plasma concentration of Compound I-19” value (in vivo; 4.00 h, individual mice) was “BQL” and the “plasma concentration of Compound I-19” value (in vivo; 8.00 h, individual mice) was “BQL”. The “plasma concentration of Compound I-19” value (in vivo; 24.0 h, individual mice) was “BQL”, the “plasma concentration of Compound I-19” value (in vivo; […] h, individual mice) was 2.78 ng/mL and the “plasma concentration of Compound I-19” value (in vivo; […] h, individual mice, 6.654 mg/kg) was “BQL”. The “AUC0-inf of Compound I-19” value (in vivo; [4]) was 6.92 ng·h/mL, the “MRT0-inf of Compound I-19” value (in vivo; [4]) was 50.2 min and the “MRT0-last of Compound I-19” value (in vivo; [4]) was 20.8 min and 15 min and 29.9 min. For the same compound, the “T1/2 of Compound I-19” value (in vivo; [4]) was 29.1 min, the “Tmax of Compound I-19” value (in vivo; [4]) was 30 min and the “AUC0-last of Compound I-19” value (in vivo; [5]) was 2.04 ng·h/mL. For the same compound, the “Cmax of Compound I-19” value (in vivo; [5]) was 4.27 ng/mL, the “MRT0-last of Compound I-19” value (in vivo; [5]) was 21.9 min and the “Tlast of Compound I-19” value (in vivo; [5]) was 0.583 h. The “Tmax of Compound I-19” value (in vivo; [5]) was 20 min, the “Compound A formed (Aa/Ai)” value ([1]; 0 min) was 0.76 and the “% Remaining” value ([1]; 1 μM, 0 min) was 100%. The “Aa/Ai Mean (n = 2)” value ([1]; 1 μM, 0 min) was 0.90, the “CLint(HIH)” value [1, 6] was 20.0 µL/min/mg and the T1/2 [1, 6] was 69.3 min. The “% Remaining” value ([1]; 1 μM, 5 min) was 85.6%, the “Aa/Ai Mean (n = 2)” value ([1]; 1 μM, 5 min) was 0.77 and the “% Remaining” value ([1]; 1 μM, 10 min) was 82.8%. The “Aa/Ai Mean (n = 2)” value ([1]; 1 μM, 10 min) was 0.75, the “% Remaining” value ([1]; 1 μM, 20 min) was 68.4% and the “Aa/Ai Mean (n = 2)” value ([1]; 1 μM, 20 min) was 0.62. The “% Remaining” value ([1]; 1 μM, 30 min) was 65.2%, the “Aa/Ai Mean (n = 2)” value ([1]; 1 μM, 30 min) was 0.59 and the “% Remaining” value ([1]; 1 μM, 60 min) was 52.6%. The “Aa/Ai Mean (n = 2)” value ([1]; 1 μM, 60 min) was 0.47, the “% Remaining” value [1, 7] was 55.5% and the “Aa/Ai Mean (n = 2)” value [1, 7] was 0.50. The “Compound A formed (Aa/Ai)” value ([1]; 5 min) was 0.67, the “Compound A formed (Aa/Ai)” value ([1]; 10 min) was 0.67 and the “Compound A formed (Aa/Ai)” value ([1]; 20 min) was 0.65. The “Compound A formed (Aa/Ai)” value ([1]; 30 min) was 0.61, the “Compound A formed (Aa/Ai)” value ([1]; 60 min) was 0.53 and the “Compound A formed (Aa/Ai)” value ([1]; NCF60 (60 min, no cofactors)) was 0.58.
